Tested on: 695427-040-R-J1-PDC complex spheroids, viability percent T/C
Test: Anticancer human tumor 695427-040-R-J1-PDC patient-derived colon adenocarcinoma cell line growth inhibition [GQUAD]
Details: for IC50: curve of first compound; for viability, T/C: stronger effect = lower value
Summary of the method: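 Multi-cell-type spheroids of tumor cells with HUVEC and mesenchymal stem cells, treated with drug combinations. Concentrations descend in half-log steps from near clinical Cmax, or from 10 microM where Cmax is unknown; viability read-out.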

[1] = second compound 0.0316 µM, first compound 0.0316 µM
[2] = second compound 0.0316 µM, first compound 0.316 µM
[3] = second compound 0.1 µM, first compound 0.0316 µM
[4] = second compound 0.1 µM, first compound 0.316 µM
[5] = second compound 0.316 µM, first compound 0.0316 µM
[6] = second compound 0.316 µM, first compound 0.316 µM
[7] = second compound 1 µM, first compound 0.0316 µM
[8] = second compound 1 µM, first compound 0.316 µM
[9] = second compound 3.16 µM, first compound 0.0316 µM
[10] = second compound 3.16 µM, first compound 0.316 µM
[11] = second compound 10 µM, first compound 0.0316 µM
[12] = second compound 10 µM, first compound 0.316 µM
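Further: spheroids exposed to compounds for seven days before readout.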

Cn1ncnc1[C@H]1c2n[nH]c(=O)c3cc(F)cc(c23)N[C@@H]1c1ccc(F)cc1 + Cc1[nH]c2ccc(F)cc2c1-c1nc2c3cccnc3c3ncccc3c2[nH]1
IC50 (second compound 0.0316 µM): > 316 nM
IC50 (second compound 0.1 µM): > 316 nM
IC50 (second compound 0.316 µM): > 316 nM
IC50 (second compound 1 µM): > 316 nM
IC50 (second compound 3.16 µM): > 316 nM
IC50 (second compound 10 µM): > 316 nM
viability, T/C (second compound 0.0316 µM, first compound 0.000999 µM): 98.9%
viability, T/C (second compound 0.0316 µM, first compound 0.00316 µM): 86.2%
viability, T/C (second compound 0.0316 µM, first compound 0.00999 µM): 98.2%
viability, T/C [1]: 103%
viability, T/C (second compound 0.0316 µM, first compound 0.0999 µM): 104%
viability, T/C [2]: 66.6%
viability, T/C (second compound 0.1 µM, first compound 0.000999 µM): 99.1%
viability, T/C (second compound 0.1 µM, first compound 0.00316 µM): 93.8%
viability, T/C (second compound 0.1 µM, first compound 0.00999 µM): 82%
viability, T/C [3]: 79.8%
viability, T/C (second compound 0.1 µM, first compound 0.0999 µM): 97.8%
viability, T/C [4]: 66.8%
viability, T/C (second compound 0.316 µM, first compound 0.000999 µM): 99.7%
viability, T/C (second compound 0.316 µM, first compound 0.00316 µM): 84.7%
viability, T/C (second compound 0.316 µM, first compound 0.00999 µM): 91.4%
viability, T/C [5]: 89.1%
viability, T/C (second compound 0.316 µM, first compound 0.0999 µM): 103%
viability, T/C [6]: 81.9%
viability, T/C (second compound 1 µM, first compound 0.000999 µM): 97.4%
viability, T/C (second compound 1 µM, first compound 0.00316 µM): 68.8%
viability, T/C (second compound 1 µM, first compound 0.00999 µM): 87.5%
viability, T/C [7]: 91.3%
viability, T/C (second compound 1 µM, first compound 0.0999 µM): 96.1%
viability, T/C [8]: 68.2%
viability, T/C (second compound 3.16 µM, first compound 0.000999 µM): 76.8%
viability, T/C (second compound 3.16 µM, first compound 0.00316 µM): 87%
viability, T/C (second compound 3.16 µM, first compound 0.00999 µM): 85.3%
viability, T/C [9]: 79.9%
viability, T/C (second compound 3.16 µM, first compound 0.0999 µM): 83.7%
viability, T/C [10]: 86%
viability, T/C (second compound 10 µM, first compound 0.000999 µM): 70.9%
viability, T/C (second compound 10 µM, first compound 0.00316 µM): 56.1%
viability, T/C (second compound 10 µM, first compound 0.00999 µM): 88.3%
viability, T/C [11]: 80.5%
viability, T/C (second compound 10 µM, first compound 0.0999 µM): 82.7%
viability, T/C [12]: 74.3%

O=C(c1cc(Cc2n[nH]c(=O)c3ccccc23)ccc1F)N1CCN(C(=O)C2CC2)CC1 + Cc1[nH]c2ccc(F)cc2c1-c1nc2c3cccnc3c3ncccc3c2[nH]1
IC50 (second compound 0.0316 µM): > 10000 nM
IC50 (second compound 0.1 µM): > 10000 nM
IC50 (second compound 0.316 µM): > 10000 nM
IC50 (second compound 1 µM): > 10000 nM
IC50 (second compound 3.16 µM): < 31.6 nM
IC50 (second compound 10 µM): > 10000 nM
viability, T/C [1]: 97.7%
viability, T/C (second compound 0.0316 µM, first compound 0.1 µM): 105%
viability, T/C [2]: 101%
viability, T/C (second compound 0.0316 µM, first compound 1 µM): 82.3%
viability, T/C (second compound 0.0316 µM, first compound 3.16 µM): 94.6%
viability, T/C (second compound 0.0316 µM, first compound 10 µM): 95.2%
viability, T/C [3]: 114%
viability, T/C (second compound 0.1 µM, first compound 0.1 µM): 93.4%
viability, T/C [4]: 97.7%
viability, T/C (second compound 0.1 µM, first compound 1 µM): 78.3%
viability, T/C (second compound 0.1 µM, first compound 3.16 µM): 93.2%
viability, T/C (second compound 0.1 µM, first compound 10 µM): 84.9%
viability, T/C [5]: 105%
viability, T/C (second compound 0.316 µM, first compound 0.1 µM): 89.1%
viability, T/C [6]: 91.5%
viability, T/C (second compound 0.316 µM, first compound 1 µM): 91.1%
viability, T/C (second compound 0.316 µM, first compound 3.16 µM): 96%
viability, T/C (second compound 0.316 µM, first compound 10 µM): 102%
viability, T/C [7]: 84.3%
viability, T/C (second compound 1 µM, first compound 0.1 µM): 87.4%
viability, T/C [8]: 73.1%
viability, T/C (second compound 1 µM, first compound 1 µM): 78.5%
viability, T/C (second compound 1 µM, first compound 3.16 µM): 99.5%
viability, T/C (second compound 1 µM, first compound 10 µM): 79.2%
viability, T/C [9]: 47.6%
viability, T/C (second compound 3.16 µM, first compound 0.1 µM): 87.2%
viability, T/C [10]: 74.8%
viability, T/C (second compound 3.16 µM, first compound 1 µM): 69.1%
viability, T/C (second compound 3.16 µM, first compound 3.16 µM): 91%
viability, T/C (second compound 3.16 µM, first compound 10 µM): 87.4%
viability, T/C [11]: 62.6%
viability, T/C (second compound 10 µM, first compound 0.1 µM): 69.1%
viability, T/C [12]: 92.1%
viability, T/C (second compound 10 µM, first compound 1 µM): 82.5%
viability, T/C (second compound 10 µM, first compound 3.16 µM): 75.9%
viability, T/C (second compound 10 µM, first compound 10 µM): 89.8%
